Values of other authors in US20030236237A1, “Method of treating symptoms of hormonal variation, including hot flashes, using tachykinin receptor antagonist” (priority 2000, published 2003).
Like-named read-outs stand apart in the source and are kept apart here.

Experiments:
hot flashes [1] = details: transdermal; tamoxifen-treated women
hot flashes [2] = details: low dose oral; men and women; short term study
[3] = test system: neurokinin B gene expression in the hypothalamic arcuate nucleus (ArN); details: ovariectomized rat treated with estrogen
[4] = test system: neurokinin B gene expression in the hypothalamic arcuate nucleus (ArN); details: ovariectomized primate treated with estrogen
hot flash = details: humans

For `Clc1cccc(Cl)c1N=C1NCCN1` [clonidine], which “frequency and severity of hot flashes” value (hot flashes [1]) is on record?
The value was “only a moderate effect”.

With `CC(=O)O[C@]1(C(C)=O)CC[C@H]2[C@@H]3C=C(C)C4=CC(=O)CC[C@]4(C)[C@H]3CC[C@@]21C` [megestrol acetate] as the compound, how does the “frequency of hot flashes” value (hot flashes [2]) read?
Its value is “shown to reduce the frequency of hot flashes”.

For estrogen, which “ArN changes (increased NKB gene expression)” value [3] is on record?
The value was “completely prevents”.

What about the “ArN changes (increased NKB gene expression)” value [4] of the same compound?
Its value is “completely prevents”.

Which “clinical hot flash after systemic injection” value (hot flash) does the source give for substance P [substance-P] here?
Its value is “results in a clinical hot flash”.
